Measured values reported in the OPERA property sets (Mansouri et al. 2018).

Structure (SMILES) | logP
NC1=NCC(CN2CCN(c3ccccc3)CC2)O1 (stereo not given) | 0.85
NC1=NCC(CN2CCN(c3ncccn3)CC2)O1 (stereo not given) | 0.21
NC1=NCC(CN2CCN(c3ccc(Cl)c(Cl)c3)CC2)O1 (stereo not given) | 2.4
COc1ccccc1N1CCN(CC2CN=C(N)O2)CC1 (stereo not given) | 0.76
NC1=NCC(CN2CCN(c3ccccc3Cl)CC2)O1 (stereo not given) | 1.87
CCOc1ccccc1N1CCN(CC2CN=C(N)O2)CC1 (stereo not given) | 1.21
NC1=NCC(CN2CCN(c3cccc(Cl)c3)CC2)O1 (stereo not given) | 1.83
Cc1ccc(N2CCN(CC3CN=C(N)O3)CC2)cc1 (stereo not given) | 1.23
NC1=NCC(CN2CCN(c3ccc(F)cc3)CC2)O1 (stereo not given) | 1
COc1ccc(N2CCN(CC3CN=C(N)O3)CC2)cc1 (stereo not given) | 0.68
NC1=NCC(CN2CCN(c3cccc(C(F)(F)F)c3)CC2)O1 (stereo not given) | 2.21
NC1=NCC(CN2CCN(c3ccc(Cl)cc3)CC2)O1 (stereo not given) | 1.71
COc1cccc(N2CCN(CC3CN=C(N)O3)CC2)c1 (stereo not given) | 0.87
Cc1cccc(N2CCN(CC3CN=C(N)O3)CC2)c1C (stereo not given) | 2.19
NC1=NCC(CN2CCN(c3ccccn3)CC2)O1 (stereo not given) | 0.48
